≈ marks a conversion by molar mass, not a printed value. Where two headings read alike, the source gives them in different places.
Experiments:
Type in all cases: cell-based
[1] = tested on: A549; test: cells; conditions: Homo sapiens; for LC50 (concentration causing 50% net cell loss): A549, read-out: LC50; for GI50 / IC50 / IC (total growth inhibition): A549, MTT; for IC50: read-out: IC50; for IC (total growth inhibition): read-out: TGI
How it was run: (§1)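 Seed ~1 × 10^4 cells/well; final 200 μL. Add MTT in phenol-red-free RPMI 1640, 4 h. Solubilise formazan in DMSO + Sorenson's buffer, 30 min RT. Read 560/690 nm. ≥3 repeats.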

[2] = tested on: C6 (Rat brain glioma); test: cells; conditions: Rattus norvegicus; for LC50 (concentration giving 50% net cell loss relative to time zero): read-out: LC50; for GI50 / IC50 / IC (total growth inhibition): C6, MTT; for IC50: read-out: IC50; for IC (total growth inhibition): read-out: TGI
How it was run: as §1

[3] = tested on: HT29; test: cells; conditions: Homo sapiens; for LC50 (concentration giving 50% net cell loss relative to time zero): HT-29, read-out: LC50; for GI50 / IC50 / IC (total growth inhibition): HT-29, HT29, MTT; for IC50: read-out: IC50; for IC (total growth inhibition): read-out: TGI
How it was run: as §1

[4] = tested on: HeLa; test: cells; conditions: Homo sapiens; for GI50 / IC50 / IC (total growth inhibition): MTT; for IC50: read-out: IC50; for IC (total growth inhibition): read-out: TGI; for LC50 (concentration causing 50% net cell loss): read-out: LC50
How it was run: as §1

[5] = tested on: Hep3B; test: cells; conditions: Homo sapiens; for GI50 / IC50 / IC (total growth inhibition): MTT; for IC50: read-out: IC50; for IC (total growth inhibition): read-out: TGI; for LC50 (concentration causing 50% net cell loss relative to time zero): read-out: LC50
How it was run: as §1

[6] = tested on: MCF7; test: cells; conditions: Homo sapiens; for LC50 (concentration causing 50% net cell loss relative to time zero): MCF7, read-out: LC50; for GI50 / IC50 / IC (total growth inhibition): MCF7, MTT; for IC50: read-out: IC50; for IC (total growth inhibition): read-out: TGI
How it was run: as §1

[7] = LDH cytotoxic activity assay, C6; conditions: rat, C6 glioma cells; for cytotoxicity at 24 h, 25 μg/mL: C6, 25 μg/mL; for cytotoxicity at 24 h, 50 μg/mL: C6, 50 μg/mL; for cytotoxicity at 24 h, 75 μg/mL: C6, 75 μg/mL; for cytotoxicity at 24 h, 100 μg/mL: C6, 100 μg/mL
How it was run: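 Cells grown in DMEM or RPMI 1640 with 10% FBS were seeded at about 5 × 10^3 per well in triplicate. They were exposed to 25, 50, 75 and 100 μg/mL compound for 24 h at 37 °C, 5% CO2, and LDH release was measured by absorbance at 492–630 nm.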

[8] = tested on: A. actinomycetemcomitans ATCC 33384; test: Microdilution MIC assay; conditions: Aggregatibacter actinomycetemcomitans, ATCC33384; A. actinomycetemcomitans ATCC 33384, 24 h at 35 °C
Description: (§2) MIC values of the compounds against bacterial strains were determined on the basis of a microwell dilution method. […] […]. Growth of microorganisms was determined visually after incubation for 24 h at 35 °C. The lowest concentration at which there was no visible growth (turbidity) was taken as the MIC.

[9] = tested on: E. coli ATCC 25922; test: Microdilution MIC assay; conditions: Escherichia coli, ATCC25922; E. coli ATCC 25922, 24 h at 35 °C
Description: as §2

[10] = tested on: E. coli ESBL ATCC 35218; test: Microdilution MIC assay; conditions: Escherichia coli, ATCC35218; E. coli ESBL ATCC 35218, 24 h at 35 °C
Description: as §2

[11] = tested on: E. faecalis ATCC 29212; test: Microdilution MIC assay; conditions: Enterococcus faecalis, ATCC29212, 24 h, E. faecalis ATCC 29212, 24 h at 35 °C; read-out: MIC
Description: as §2

[12] = tested on: E. faecalis VRE ATCC 19433; test: Microdilution MIC assay; conditions: Enterococcus faecalis; E. faecalis VRE ATCC 19433, 24 h at 35 °C
Description: as §2

[13] = tested on: P. aeruginosa AGME ATCC 27853; test: Microdilution MIC assay; conditions: Pseudomonas aeruginosa, ATCC27853; P. aeruginosa AGME ATCC 27853, 24 h at 35 °C
Description: as §2

[14] = tested on: S. aureus MRSA ATCC 46300; test: Microdilution MIC assay; conditions: Staphylococcus aureus; S. aureus MRSA ATCC 46300, 24 h at 35 °C; read-out: MIC
Description: as §2

[15] = tested on: S. aureus MSSA ATCC 29213; test: Microdilution MIC assay; conditions: S. aureus MSSA ATCC 29213, 24 h at 35 °C
Description: as §2

[16] = tested on: S. gordonii NCTC 7870; test: Microdilution MIC assay; conditions: Streptococcus gordonii, NCTC7870; S. gordonii NCTC 7870, 24 h at 35 °C
Description: as §2

[17] = tested on: S. mutans ATCC 35668; test: Microdilution MIC assay; conditions: Streptococcus mutans, ATCC35668, 24 h, S. mutans ATCC 35668, 24 h at 35 °C; read-out: MIC
Description: as §2

[18] = Staphylococcus aureus, 24 h, read-out: MIC

| SMILES | LC50 (concentration causing 50% net cell loss) [1] | GI50 [1] | IC50 [1] | IC (total growth inhibition) [1] | LC50 (concentration giving 50% net cell loss relative to time zero) [2] | GI50 [2] | IC50 [2] | IC (total growth inhibition) [2] | LC50 (concentration giving 50% net cell loss relative to time zero) [3] | GI50 [3] | IC50 [3] | IC (total growth inhibition) [3] | GI50 [4] | IC50 [4] | IC (total growth inhibition) [4] | LC50 (concentration causing 50% net cell loss) [4] | GI50 [5] | IC50 [5] | IC (total growth inhibition) [5] | LC50 (concentration causing 50% net cell loss relative to time zero) [5] | further results |
| --- | --- | --- | --- | --- | --- | --- | --- | --- | --- | --- | --- | --- | --- | --- | --- | --- | --- | --- | --- | --- | --- |
| Cc1cccc(-c2cc(-c3cccnc3)nc(N[C@@H]3O[C@H](CO)[C@@H](O)[C@H](O)[C@H]3O)n2)c1 [Compound 5, N-[4-(3-methylphenyl)-6-pyridin-3-ylpyrimidin-2-yl]-β-D-glucopyranosylamine] | > 500 µg/mL | 23.7 µg/mL (≈ 55.8 µM) | > 500 µg/mL | > 500 µg/mL | 249 µg/mL (≈ 587 µM) | 4.56 µg/mL (≈ 10.7 µM) | 33.5 µg/mL (≈ 78.9 µM) | 18.1 µg/mL | > 500 µg/mL | 4.12 µg/mL (≈ 9.71 µM) | 72.6 µg/mL (≈ 171 µM) | 126 µg/mL | > 500 µg/mL | > 500 µg/mL | > 500 µg/mL | > 500 µg/mL | 3.61 µg/mL (≈ 8.5 µM) | 20.1 µg/mL (≈ 47.4 µM) | 20.5 µg/mL | > 500 µg/mL | LC50 (concentration causing 50% net cell loss relative to time zero) [6]: > 500 µg/mL; GI50 [6]: 2.53 µg/mL (≈ 5.96 µM); IC50 [6]: 66.8 µg/mL (≈ 157 µM); IC (total growth inhibition) [6]: 75.7 µg/mL; cytotoxicity at 24 h, 25 μg/mL [7]: 26.9%; cytotoxicity at 24 h, 50 μg/mL [7]: 44.1%; cytotoxicity at 24 h, 75 μg/mL [7]: 62.6%; cytotoxicity at 24 h, 100 μg/mL [7]: 87.1%; MIC [8]: 250 µg/mL (≈ 589 µM); MIC [9]: > 1000 µg/mL; MIC [10]: > 1000 µg/mL; MIC [11]: > 1000 µg/mL; MIC [12]: > 1000 µg/mL; MIC [13]: > 1000 µg/mL; MIC [14]: 250 µg/mL (≈ 589 µM); MIC [15]: 125 µg/mL (≈ 294 µM); MIC [15, 18]: 62.5 to 125 µg/mL (≈ 147 to 294 µM); MIC [16]: 125 µg/mL (≈ 294 µM); MIC [17]: 500 µg/mL (≈ 1180 µM) |
| Cc1cccc(-c2cc(-c3ccncc3)nc(N[C@@H]3O[C@H](CO)[C@@H](O)[C@H](O)[C@H]3O)n2)c1 [Compound 6, N-[4-(3-methylphenyl)-6-pyridin-4-ylpyrimidin-2-yl]-β-D-glucopyranosylamine] | > 500 µg/mL | 192 µg/mL (≈ 453 µM) | > 500 µg/mL | > 500 µg/mL | > 500 µg/mL | > 500 µg/mL | > 500 µg/mL | > 500 µg/mL | > 500 µg/mL | 4.29 µg/mL (≈ 10.1 µM) | > 500 µg/mL | > 500 µg/mL | > 500 µg/mL | > 500 µg/mL | > 500 µg/mL | > 500 µg/mL | 4.07 µg/mL (≈ 9.59 µM) | > 500 µg/mL | > 500 µg/mL | > 500 µg/mL | LC50 (concentration causing 50% net cell loss relative to time zero) [6]: > 500 µg/mL; GI50 [6]: 2.29 µg/mL (≈ 5.4 µM); IC50 [6]: > 500 µg/mL; IC (total growth inhibition) [6]: > 500 µg/mL; cytotoxicity at 24 h, 25 μg/mL [7]: 27.9%; cytotoxicity at 24 h, 50 μg/mL [7]: 38.2%; cytotoxicity at 24 h, 75 μg/mL [7]: 63.1%; cytotoxicity at 24 h, 100 μg/mL [7]: 84.9%; MIC [8]: 500 µg/mL (≈ 1180 µM); MIC [9]: > 1000 µg/mL; MIC [10]: > 1000 µg/mL; MIC [11]: 1000 µg/mL (≈ 2360 µM); MIC [12]: 1000 µg/mL (≈ 2360 µM); MIC [13]: > 1000 µg/mL; MIC [14]: 250 µg/mL (≈ 589 µM); MIC [15]: 125 µg/mL (≈ 294 µM); MIC [15, 18]: 62.5 to 125 µg/mL (≈ 147 to 294 µM); MIC [16]: 250 µg/mL (≈ 589 µM); MIC [17]: 500 µg/mL (≈ 1180 µM) |

— PMC10387993, “New pyrimidine-N-β-D-glucosides: synthesis, biological evaluation, and molecular docking investigations” (Turkish Journal of Chemistry, 2023)
